How the values were obtained:
CCK-A receptors = target: T1, CCK-A receptors (Rattus norvegicus, UniProt P30551); experiment: Measurement of binding affinity for CCK-A receptors ([3H]L-364,718, rat pancreas membranes); set-up: species or system SD rat; details: [3H]L-364,718, 37° C., 30 minutes, read-out: Receptor binding affinity IC50, CCK-A
T1 construct: The pancreas of an SD rat was homogenized; from tissue; host or cells: SD rat pancreas membranes
T1 sequence (P30551 1-444): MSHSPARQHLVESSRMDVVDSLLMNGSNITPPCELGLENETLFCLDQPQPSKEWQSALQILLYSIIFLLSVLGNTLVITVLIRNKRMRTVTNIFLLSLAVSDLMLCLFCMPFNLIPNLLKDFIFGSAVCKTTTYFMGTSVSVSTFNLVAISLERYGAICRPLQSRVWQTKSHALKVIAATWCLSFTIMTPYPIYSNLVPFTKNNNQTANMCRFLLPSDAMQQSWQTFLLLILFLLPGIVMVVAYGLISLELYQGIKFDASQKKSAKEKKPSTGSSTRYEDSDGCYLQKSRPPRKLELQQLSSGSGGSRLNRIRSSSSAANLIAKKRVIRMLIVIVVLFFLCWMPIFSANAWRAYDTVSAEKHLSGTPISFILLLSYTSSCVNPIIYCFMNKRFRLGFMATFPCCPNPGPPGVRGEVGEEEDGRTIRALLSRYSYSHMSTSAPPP
Procedure: Measurement of binding affinity for CCK-A receptors
The pancreas of an SD rat was homogenized in a 20-fold volume of 50 mM Tris-HCl buffer (pH 7.7) by the use of a Polytrone-type homogenizer, the homogenate was twice centrifuged for 10 minutes at 50000 g by the use of an ultra-centrifuge, the precipitate thus obtained was suspended in a 40-fold volume of 50 mM Tris-HCl buffer (containing 0.2% BSA, 5 mM MgCl2, 0.1 mg/ml bacitracin and 5 mM DTT; pH 7.7), and the suspension was stored at -80° C. until the membrane preparations were required.
The membrane preparations were then warmed to room temperature, diluted 1:10 with the buffer and incubated at 37° C. for 30 minutes in the presence of [^3 H]L-364,718 and the test compound then separated by suction filtration. Non-specific binding was determined in the presence of 1 μM L-364,718. The amount of labelled ligand bound to the receptor was measured by the use of a liquid scintillation counter; IC50 values were determined, being that concentration of test compound required to inhibit specific binding by 50%
(§1) A high affinity for the CCK-A receptor in a gastrin/CCK-B antagonist is thought to be undesirable as it may lead to side-effects such as cholestasis and gall stone formation during therapy. Therefore it is preferable for the therapeutic agent to be selective for the CCK-B receptor. This selectivity is expressed by the ratio IC50 (CCK-A)/IC50 (CCK-B); the higher the value of this ratio the better is the selectivity.

[1] = tested on: pentagastrin-stimulated gastric acid secretion; experiment: Measurement of inhibition of pentagastrin-stimulated gastric acid secretion in rat; assay type: in vivo; details: anaesthetised rat, test drug intravenous, pentagastrin 15 μg/Kg/hr i.v.; read-out: ED50, reduction of pentagastrin-stimulated gastric acid secretion to 50% of the maximum level
Text: Measurement of inhibition of pentagastrin-stimulated gastric acid secretion in rat
A cannula was inserted into the trachea of a rat anaesthetised with urethane (intraperitoneally administered, 1.25 g/Kg), its abdominal wall was incised to expose the gastric and duodenal portions, and a polyethylene cannula was set in the anterior stomach after ligation of the cardia. The duodenum was then subjected to slight section, a polyethylene cannula was inserted from the incised portion toward the stomach, and the pylorus was ligated to fix the cannula.
Physiological saline (with pH adjusted to 7.0) was perfused from the anterior stomach toward the pylorus at a rate of 3 ml/min, and the gastric-acid secretion was measured by continuous titration of the perfusate by the use of a pH-stat (AUT-201; product of Toa Electronics, Ltd.). The continuous titration was carried out by using 25 mM NaOH solution until the pH reached 7.0, and the result was expressed as the amount of gastric acid secreted for every 10 minutes (μEq /10 min.). Pentagastrin was intravenously administered at a rate of 15 μg/Kg/hr.
The secretion of gastric acid increased upon administration of pentagastrin, reaching the maximum level after 60 minutes and stably maintaining this level after that. A test drug was then intravenously administered, and the secretion of gastric acid was measured; ED50 values were determined, being the amount of the drug required to reduce the amount of secreted gastic acid down to 50% of the maximum level.

CCK-B receptors = target: T2, CCK-B receptors (Rattus norvegicus, UniProt P30553); experiment: Measurement of binding affinity for CCK-B receptors ([125I]BH-CCK-8, rat brain membranes); set-up: species or system SD rats; details: ratio IC50 (CCK-A)/IC50 (CCK-B)
T2 construct: the whole brain was immediately excised from each of the rats and homogenized; from tissue; host or cells: SD rat whole brain membranes
T2 sequence (P30553 whole entry): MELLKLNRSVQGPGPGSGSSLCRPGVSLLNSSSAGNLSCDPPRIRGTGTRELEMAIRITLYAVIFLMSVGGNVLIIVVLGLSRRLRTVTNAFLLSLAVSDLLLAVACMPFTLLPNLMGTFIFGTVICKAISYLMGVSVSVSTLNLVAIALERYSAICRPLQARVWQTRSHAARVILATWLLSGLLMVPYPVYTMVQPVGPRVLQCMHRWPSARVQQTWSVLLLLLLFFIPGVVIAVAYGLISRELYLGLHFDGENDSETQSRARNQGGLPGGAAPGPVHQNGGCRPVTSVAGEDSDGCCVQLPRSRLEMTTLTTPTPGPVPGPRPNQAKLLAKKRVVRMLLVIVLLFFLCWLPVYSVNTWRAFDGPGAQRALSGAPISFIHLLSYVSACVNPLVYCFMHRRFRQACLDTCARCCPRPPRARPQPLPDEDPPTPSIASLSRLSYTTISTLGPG
Procedure: Measurement of binding affinity for CCK-B receptors
About 100 SD rats were decapitated without anaesthesia, the whole brain was immediately excised from each of the rats and homogenized in 10-fold volume of 0.32M aqueous solution of sucrose by the use of a Teflon-coated homogenizer, the homogenate thus obtained was centrifuged for ten minutes at 900 g by the use of a cooled centrifuge, and the supernatant was further centrifuged for 15 minutes at 11500 g. The precipitate thus obtained was dispersed in 50 mM Tris-HCl buffer (pH 7.4) containing 0.08% Triton X-100, this suspension was allowed to stand for 30 minutes and again centrifuged for 15 minutes at 11500 g, the precipitate thus obtained was washed twice with 5 mM Tris-HCl buffer and twice with 50 mM Tris-HCl buffer in that order with centrifugal separation, the washed precipitate was suspended in 50 mM Tris-HCl buffer, and the suspension thus obtained was stored at -80° C. until the membrane preparation was required.
The membrane preparations were warmed to room temperature, diluted with 10 mM HEPES buffer (containing 130 mM NaCl, 5 mM MgCl2, 1 mM EGTA and 0.25 mg/ml bacitracin; pH 6.5) and incubated at 25° C. for 120 minutes in the presence of [^125 I]BH-CCK-8 and the test compound, then separated by suction filtration. Non-specific binding was determined in the presence of 1 μM CCK-8. The amount of labelled ligand bound to the receptor was measured by the use of a γ-counter; IC50 values were determined, being that concentration of test compound required to inhibit specific binding by 50%.
as §1

Cc1cccc(NC(=O)NC2N=C(c3ccccc3)c3ccccc3N(CC(=O)C3CCCC3)C2=O)c1 (racemic) [Example 4, N-((3RS)-1-Cyclopentylcarbonylmethyl-2,3-dihydro-2-oxo-5-phenyl-1H-1,4-benzodiazepin-3-yl)-N'-(3-methylphenyl)urea]
IC50 (CCK-A receptors): 0.44 µM | ED50 [1]: 0.016 µmol/kg | A/B Ratio (CCK-B receptors): 1,900

Cc1cccc(NC(=O)NC2N=C(c3ccccc3)c3ccccc3N(CC(=O)C3CCCCCC3)C2=O)c1 (racemic) [Example 5, N-((3RS)-1-Cycloheptylcarbonylmethyl-2,3-dihydro-2-oxo-5-phenyl-1H-1,4-benzodiazepin-3-yl)-N'-(3-methylphenyl)urea]
ED50 [1]: 0.018 µmol/kg

Cc1cccc(NC(=O)NC2N=C(c3ccccc3)c3ccccc3N(CC(=O)C3CCCCC3)C2=O)c1 (racemic) [Example 7, N-((3RS)-1-Cyclohexylcarbonylmethyl-2,3-dihydro-2-oxo-5-phenyl-1H-1,4-benzodiazepin-3-yl)-N'-(3-methylphenyl)urea]
ED50 [1]: 0.047 µmol/kg

Cc1cccc(NC(=O)N[C@@H]2N=C(c3ccccc3)c3ccccc3N(C)C2=O)c1 [reference compound]
ED50 [1]: 4.2 µmol/kg
